Data on four compounds can be found in patent US5140009A (Tap Pharmaceuticals, Inc., priority 1990, dated 1992).

Numbered stars: 1 amine (or outer) side, 2 acyl side, 3 side chain; on linkers, the order of the positions; unused ones are H or OH. Square brackets hold non-standard residues; d marks the D form. Side chains are listed from the residue outwards. Peptide text beside a SMILES is read from it. * marks the point of attachment. Propanoyl(3-(4-F-phenyl)) = O=C(CCc1ccc(F)cc1)*; d1Nal = N[C@H](Cc1cccc2ccccc12)C(=O)O; NMeY = CN[C@@H](Cc1ccc(O)cc1)C(=O)O; Piperazinyl(4-Me) = CN1CCN(*)CC1; CO = O=C([*:1])[*:2]

The target of assay [1] is T1, LHRH receptors (Rattus norvegicus, UniProt P30969).
T1 construct: Pituitary membranes containing LHRH receptors are prepared in batches from quick-frozen rat pituitaries; tissue Hilltop Labs; host or cells: rat pituitary membranes
T1 sequence (P30969 1-327): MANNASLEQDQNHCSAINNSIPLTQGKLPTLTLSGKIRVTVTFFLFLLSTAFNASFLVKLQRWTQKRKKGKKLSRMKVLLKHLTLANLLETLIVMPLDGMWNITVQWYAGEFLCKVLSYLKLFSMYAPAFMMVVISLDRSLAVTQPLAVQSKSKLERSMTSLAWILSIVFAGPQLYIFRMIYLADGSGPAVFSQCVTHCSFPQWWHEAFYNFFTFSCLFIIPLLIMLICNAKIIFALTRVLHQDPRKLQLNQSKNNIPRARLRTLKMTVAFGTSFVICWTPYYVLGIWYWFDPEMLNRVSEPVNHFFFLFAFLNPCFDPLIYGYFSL
Nature of the assay: Receptor Binding (radioligand receptor binding assay). Conditions: rat pituitary membranes, 2 hours at 4° C.

Assay [2] relates to male castrate rats. The assay is described as follows: In vivo LH Inhibiton. Also on record: species or system rat. As to conditions: table 4, 30 ug/kg subcutaneously by bolus injection, AUC of log (LHt /LHi). As for the experimental part:
(c) In vivo LH Inhibiton. The compound to be tested is administered at 30 ug/kg subcutaneously by bolus injection to male castrate rats and blood samples are collected periodically over 24 hours. The AUC (area under the curve) of the LH suppression data as a function of time is calculated using the formula log (LHt /LHi) wherein LHt is the LH concentration in the blood at time t and LHi is the initial baseline LH concentration in the blood. The AUC values are negative numbers.

The test system of assay [3] is castrated rats. Nature of the assay: In vivo LH Release. On the set-up: species or system rat. Conditions: table 3, dose producing half-maximal LH release. As for the experimental part: (d) In vivo LH Release. The compound to be tested is administered to castrated rats intraveneously and the serum LH concentration at various time points is measured by RIA. The time integrated LH response is calculated and the dose producing half-maximal LH release (ED50) is reported.

Assay [4] addresses T2, Rat pituitaries (Rattus norvegicus, UniProt P30969).
T2 sequence (P30969 1-327): T1 sequence (P30969 1-327)
The assay is described as follows: In vitro LH release suppression by LHRH antagonists in presence of superagonist [D-Leu^6 -Pro^9 NHEt]LHRH (pA2). As to conditions: negative log of concentration producing half-maximum suppression of LH. Format: cell-based.

Consider `CC(C)C[C@H](NC(=O)[C@@H](CCCCNC(=O)N1CCN(C)CC1)NC(=O)[C@H](Cc1ccc(O)cc1)N(C)C(=O)[C@H](CO)NC(=O)[C@@H](Cc1cccc2ccccc12)NC(=O)CCc1ccc(F)cc1)C(=O)N[C@@H](CCCNC(=N)N)C(=O)N1CCC[C@H]1C(=O)N[C@H](C)C(N)=O` [Compound 211, N-(3-(4-Fluorophenyl)propionyl)-D-1-Nal-Ser-NMeTyr-D-Lys(N-epsilon-N'-N"-methylpiperazinecarbonyl)-Leu-Arg-Pro-D-AlaNH2] ({Propanoyl(3-(4-F-phenyl))}-[d1Nal]S[NMeY][dK]([CO-Piperazinyl(4-Me)])LRP[dA]-NH2), for which, in assay [1] (table 4, radioligand 50 pM, read-out: Receptor Binding pkI (converted)), the Ki was 15.1 pM. For the same compound, the “AUC (24 hr. after 30 ug/kg)” value in assay [2] is -449.
For the compound `CC(C)C[C@H](NC(=O)CNC(=O)[C@H](Cc1ccc(O)cc1)NC(=O)[C@H](CO)NC(=O)[C@H](Cc1c[nH]c2ccccc12)NC(=O)[C@H](Cc1c[nH]cn1)NC(=O)[C@@H]1CCC(=O)N1)C(=O)N[C@@H](CCCNC(=N)N)C(=O)N1CCC[C@H]1C(=O)NCC(N)=O` [LHRH, Luteinizing hormone releasing hormone], in assay [3], the ED50 ug/kg i.v. worked out at 859 µg/kg.
As for “(2-9)[N-(N-alpha-Morpholinocarbonyl)-D,L-4-F-Phe^2 -D-Trp^6 -Pro^9 NHEt]LHRH [Compound 113]”, the “Receptor Binding pkI” value in assay [1] (table 3, radioiodinated [D-Leu^6 -des Gly^10 ]-LHRH ethyl amide 50 pM) turned out to be 9.51. In addition, the “LH Inhibition pA2” value in assay [4] (table 3) is on record as 8.63.
In the case of “(3-10)[N-(3-(4-Fluorophenyl)propionyl)-D-Trp^3 -NMeTyr^5 -D-Lys^6 -D-Ala^10 ]LHRH [Compound 182]”, in assay [1] (table 4, radioligand 50 pM), the “Receptor Binding pkI” value is given as 10.55. Further, the “LH Inhibition pA2” value in assay [4] (table 4) was 9.32.
